Reference: patent publication US20190117586A1, “METHODS OF PREVENTING OR TREATING PARKINSON'S DISEASE BY THE FARNESYLATION OF PARIS” (The Johns Hopkins University, priority 2016, published 2019)

Columns and labels:
FTase = FTase (Homo sapiens, UniProt P49354+P49356); experiment: In vitro farnesylation of recombinant GST-PARIS by FTase and FPP; assay type: biochemical
Protocol: Next, a biotechnological approach to confirm that PARIS is prenylated was applied (Nguyen et al., 2009). The total cell lysate of SH-SY5Y cells transfected with Flag-tagged PARIS was incubated with a biotin-functionalized geranyl pyrophosphate analogue (Biotin-GPP) and the recombinant FTase W102T/Y154T mutant, which was engineered to utilize Biotin-GPP as a lipid donor (Nguyen et al., 2009). […] In addition, the immunoprecipitate of Flag-tagged PARIS from SH-SY5Y cells transfected with either siRNA-control or siRNA-FTase α was mixed with NBD-GPP, a […] fluorescent analog of FPP for an in vitro farnesylation assay (IVF). […] To determine whether FTase directly farnesylates PARIS, recombinant GST-PARIS was incubated with FTase and FPP in the presence and absence of the FTase inhibitor, FTI-277. GST-PARIS undergoes farnesylation by FTase, which is abolished by the addition of FTase inhibitor, FTI-277 (FIG. 3E).
The in vitro farnesylation assay (IVF) was performed as described (Nguyen et al., 2009; Nguyen et al., 2010; Wu et al., 2007). Briefly, for metabolic global farnesylation, 5 μCi [^3H]-farnesyl pyrophosphate (FPP) (NET1042001MC, PerkinElmer) was treated into SH-SY5Y cells and immunoprecipitant was monitored by immunoblot analysis with Farnesyl antibody. […] For fluorescence-based IVF, immunoprecipitated Flag-tagged PARIS was incubated for 20 min with NBD-GPP (LI-014, Jena Bioscience). […]

PARIS = PARIS farnesylation in SH-SY5Y cells transfected with Flag-tagged PARIS (immunoprecipitation); assay type: cell-based; conditions: PARIS overexpression, farnesol
Protocol: (§1) Geraniol or geranylgeraniol have no effect on PGC-1α levels (FIG. 3H).
To confirm that farnesylation of PARIS requires FTase, siRNA-FTase α knockdown or FTI-277 inhibition of FTase in the setting of PARIS overexpression was performed (FIG. 4C). […] To ascertain whether the farnesylation of PARIS affects the DNA binding activity of PARIS on the IRS motif of the PGC-1α promoter, a chromatin immunoprecipitation assay (ChIP) was performed from SH-SY5Y transfected with GFP-tagged PARIS WT or GFP-tagged PARIS C631S. […] To examine the possibility that the farnesylation of PARIS alters its subcellular distribution, subcellular fractionation was used to monitor the levels of PARIS in cytosolic, membrane, soluble nuclear, and chromatin-bound nuclear fractions by immunoblot analysis (FIG. 4F).

PGC-1α = PGC-1α levels in SH-SY5Y cells by immunoblot; assay type: cell-based; conditions: FIG. 3H
Protocol: The 9 compounds that activate the PGC-1α promoter in the presence of PARIS were evaluated to determine which compounds induce PGC-1α levels in SH-SY5Y cells (FIGS. 2A and 2B). […] The mRNA level of PGC-1α target genes including copper/zinc superoxide dismutase (SOD1), manganese SOD (SOD2), glutathione peroxidase (GPx1), catalase (CAT), nuclear respiratory factor-1 (NRF-1), mitochondrial transcription factor A (TFAM), mitochondrial uncoupling proteins (UCP2 and UCP3), and the oxidative phosphorylation regulators, ATP5b, cytochrome C (CytC) and cytochrome C oxidase (COX II and IV) were determined by real-time quantitative RT-PCR (qRT-PCR) (FIG. 2C).
as §1

Row | Structure (SMILES) | farnesylation of GST-PARIS by FTase (FTase) | farnesylation of PARIS by farnesol under FTase inhibition (PARIS) | PGC-1α levels, specificity test with compounds of similar structure (PGC-1α)
1 | COC(=O)[C@H](CCSC)NC(=O)c1ccc(NC[C@@H](N)CS)cc1-c1ccccc1 [FTI-277, reference compound] | abolished | strongly prevents farnesylation of PARIS by farnesol | –
2 | CC(C)=CCC/C(C)=C/CO [Geraniol] | – | – | no effect
3 | CC(C)=CCC/C(C)=C/CC/C(C)=C/CC/C(C)=C/CO [geranylgeraniol] | – | – | no effect
